These results are taken from publication PMC3715147 (Journal of natural products, 2013).

One assay relates to HIV-1 NL4-3. Kind of assay: Anti-HIV assay: HIV-1 NL4-3 replication in MT4 cells. In kind it is cell-based. The note with it: Human immunodeficiency virus 1, NL43, Lymphocyte, read-out: anti-HIV EC90.
In the next assay the test system is HIV-1 R5 viruses. Particulars: cited from earlier work.
The next assay relates to X4 or dual tropic HIV-1. Particulars: peripheral blood mononuclear cells (PBMCs); cited from earlier work.

By EC90 is commonly meant the concentration at which the effect reaches the 90% level. `CCCCC/C=C\CCC(=O)O[C@@]12[C@H](OC(=O)c3ccccc3)[C@@H](C)[C@@]3(O)[C@@H](C=C(CO)C[C@]4(O)C(=O)C(C)=C[C@@H]34)[C@@H]1C2(C)C` [Compound 3, stelleracin A]: the EC90 with HIV-1 NL4-3 is less than 1 nM.

Take `C=C(C)[C@@]12C[C@@H](COC(=O)c3ccccc3)[C@@]34OC5(O[C@@H]1[C@@H]3[C@@H]1O[C@]1(CO)[C@@H](O)[C@@]1(O)[C@H]4[C@H]([C@H](C)[C@@H]1OC(=O)c1ccccc1)[C@H](C)CCCCCC[C@H]5O)O2` [gnidimacrin]: the “inhibition of HIV-1 R5 viruses (in words)” value in the assay with HIV-1 R5 viruses is “potent inhibitor”. In addition, in the assay with X4 or dual tropic HIV-1, the “activity against X4 or dual tropic HIV-1 replication (in words)” value was “essentially inactive”.

Take `CCCCCCCC(=O)O[C@]12[C@H]([C@@H]3C=C(CO)C[C@]4(O)C(=O)C(C)=C[C@H]4[C@@]3(O)C[C@H]1OC(=O)c1ccccc1)C2(C)C` [Compound 2, 12-O-benzoylphorbol 13-octanoate]: the EC90 with HIV-1 NL4-3 is less than 1 nM.

Take `CCCCCCCCCC(=O)O[C@@]12[C@H](OC(=O)c3ccccc3)[C@@H](C)[C@@]3(O)[C@@H](C=C(CO)C[C@]4(O)C(=O)C(C)=C[C@@H]34)[C@@H]1C2(C)C` [Compound 1, stellerarin]: the EC90 in the assay with HIV-1 NL4-3 was less than 1 nM.
